Earlier results, collected in paper PMC9481151, “Discovery of new symmetrical and asymmetrical nitrile-containing 1,4-dihydropyridine derivatives as dual kinases and P-glycoprotein inhibitors: synthesis, in vitro assays, and in silico studies” (Journal of Enzyme Inhibition and Medicinal Chemistry, 2022).

Experiments:
Parameters in all cases: method as in PMID 34146919
Conditions in all cases: introduction; cited from earlier work
[1] = molecular target: HER-2 (Homo sapiens, UniProt P04626)
[2] = molecular target: EGFR (Homo sapiens, UniProt P00533)
Chain of EGFR (P00533 25-1210): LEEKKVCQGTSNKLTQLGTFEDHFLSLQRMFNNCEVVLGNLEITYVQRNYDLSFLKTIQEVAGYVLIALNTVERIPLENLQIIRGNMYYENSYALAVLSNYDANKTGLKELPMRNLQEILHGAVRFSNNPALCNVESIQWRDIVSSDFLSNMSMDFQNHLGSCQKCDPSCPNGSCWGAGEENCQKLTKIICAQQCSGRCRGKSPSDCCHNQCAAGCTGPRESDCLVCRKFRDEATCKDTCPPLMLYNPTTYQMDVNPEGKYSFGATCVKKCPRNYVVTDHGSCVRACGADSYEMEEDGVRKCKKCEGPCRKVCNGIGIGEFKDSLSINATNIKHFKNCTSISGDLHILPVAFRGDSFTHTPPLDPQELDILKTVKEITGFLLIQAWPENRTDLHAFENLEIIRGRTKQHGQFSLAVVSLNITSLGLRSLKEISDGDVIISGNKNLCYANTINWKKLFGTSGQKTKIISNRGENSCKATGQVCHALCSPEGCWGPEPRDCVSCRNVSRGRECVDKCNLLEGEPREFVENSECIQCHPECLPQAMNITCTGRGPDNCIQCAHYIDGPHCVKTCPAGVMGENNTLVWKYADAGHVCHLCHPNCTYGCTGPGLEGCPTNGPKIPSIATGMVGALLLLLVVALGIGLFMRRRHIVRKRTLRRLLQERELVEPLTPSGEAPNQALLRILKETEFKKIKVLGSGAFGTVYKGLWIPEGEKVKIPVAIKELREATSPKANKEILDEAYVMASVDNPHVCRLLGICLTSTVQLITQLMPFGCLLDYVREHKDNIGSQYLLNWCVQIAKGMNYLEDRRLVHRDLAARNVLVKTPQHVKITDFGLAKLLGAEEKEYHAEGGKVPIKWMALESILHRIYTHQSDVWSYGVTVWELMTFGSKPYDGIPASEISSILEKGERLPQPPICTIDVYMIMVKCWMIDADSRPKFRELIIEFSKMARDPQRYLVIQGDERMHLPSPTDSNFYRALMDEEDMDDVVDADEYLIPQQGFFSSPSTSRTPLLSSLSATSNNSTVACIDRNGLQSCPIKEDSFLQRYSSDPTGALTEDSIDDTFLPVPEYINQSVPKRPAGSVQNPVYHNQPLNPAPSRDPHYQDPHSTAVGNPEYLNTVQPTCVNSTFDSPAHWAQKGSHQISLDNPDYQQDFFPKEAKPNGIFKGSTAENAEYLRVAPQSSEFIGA

[3] = molecular target: BTK (Homo sapiens, UniProt Q06187)
Chain of BTK (Q06187 whole entry): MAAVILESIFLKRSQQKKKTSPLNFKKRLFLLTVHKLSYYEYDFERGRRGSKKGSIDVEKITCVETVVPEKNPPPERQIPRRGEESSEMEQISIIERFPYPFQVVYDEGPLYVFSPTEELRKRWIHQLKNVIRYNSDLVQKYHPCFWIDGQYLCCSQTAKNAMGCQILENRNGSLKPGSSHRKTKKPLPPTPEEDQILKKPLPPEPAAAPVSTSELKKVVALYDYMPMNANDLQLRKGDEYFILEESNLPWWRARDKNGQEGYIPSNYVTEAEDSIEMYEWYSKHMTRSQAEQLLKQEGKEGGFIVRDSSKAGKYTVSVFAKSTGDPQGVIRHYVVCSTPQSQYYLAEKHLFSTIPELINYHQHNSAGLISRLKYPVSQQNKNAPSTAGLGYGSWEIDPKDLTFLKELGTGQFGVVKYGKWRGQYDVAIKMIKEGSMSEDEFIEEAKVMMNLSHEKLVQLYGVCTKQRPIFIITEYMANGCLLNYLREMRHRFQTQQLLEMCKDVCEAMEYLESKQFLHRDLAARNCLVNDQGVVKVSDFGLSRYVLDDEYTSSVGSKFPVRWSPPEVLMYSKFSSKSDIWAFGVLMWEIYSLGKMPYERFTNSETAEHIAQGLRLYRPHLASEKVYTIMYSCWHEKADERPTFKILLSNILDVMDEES

Chain of HER-2 (P04626 23-1255): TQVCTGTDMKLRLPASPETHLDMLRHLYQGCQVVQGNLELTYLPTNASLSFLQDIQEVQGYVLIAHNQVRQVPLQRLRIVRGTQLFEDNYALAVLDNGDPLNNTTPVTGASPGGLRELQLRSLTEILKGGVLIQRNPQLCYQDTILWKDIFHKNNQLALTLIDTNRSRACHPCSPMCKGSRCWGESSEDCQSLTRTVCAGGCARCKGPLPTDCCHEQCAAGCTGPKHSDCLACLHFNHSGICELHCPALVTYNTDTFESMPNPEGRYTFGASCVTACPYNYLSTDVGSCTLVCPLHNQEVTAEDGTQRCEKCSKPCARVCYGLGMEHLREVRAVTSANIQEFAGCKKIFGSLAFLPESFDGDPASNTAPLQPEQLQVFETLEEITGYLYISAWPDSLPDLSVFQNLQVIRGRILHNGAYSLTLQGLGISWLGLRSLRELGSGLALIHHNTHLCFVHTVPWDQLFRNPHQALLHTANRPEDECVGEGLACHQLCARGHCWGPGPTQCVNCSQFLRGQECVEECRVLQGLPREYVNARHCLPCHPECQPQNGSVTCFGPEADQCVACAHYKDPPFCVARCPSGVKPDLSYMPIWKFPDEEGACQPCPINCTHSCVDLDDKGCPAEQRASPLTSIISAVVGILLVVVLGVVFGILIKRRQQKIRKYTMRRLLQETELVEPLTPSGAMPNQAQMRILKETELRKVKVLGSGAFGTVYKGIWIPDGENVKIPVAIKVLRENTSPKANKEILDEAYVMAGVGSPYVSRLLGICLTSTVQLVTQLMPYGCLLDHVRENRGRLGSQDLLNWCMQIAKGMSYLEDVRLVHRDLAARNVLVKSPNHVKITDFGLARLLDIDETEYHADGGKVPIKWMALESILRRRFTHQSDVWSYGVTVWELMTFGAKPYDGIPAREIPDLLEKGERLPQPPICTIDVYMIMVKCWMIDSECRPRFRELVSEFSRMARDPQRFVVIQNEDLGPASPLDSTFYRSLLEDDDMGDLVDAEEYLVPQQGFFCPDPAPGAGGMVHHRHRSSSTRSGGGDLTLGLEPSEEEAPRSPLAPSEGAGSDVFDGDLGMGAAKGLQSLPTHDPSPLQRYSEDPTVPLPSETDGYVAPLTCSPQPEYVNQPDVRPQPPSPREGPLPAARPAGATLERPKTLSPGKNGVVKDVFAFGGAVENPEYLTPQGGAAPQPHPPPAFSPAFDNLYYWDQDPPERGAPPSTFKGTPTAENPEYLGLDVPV

Which results are given for `CCOC(=O)C1=C(C)NC(C)=C(C(=O)OCC)C1c1ccc2c(c1)Cc1ccccc1-2` [Compound II]?
IC50 [1]: 0.0845 µM; IC50 [2]: 0.0718 µM; IC50 [3]: 0.0688 µM
